Reference: BigSolDB 2.1

C1OCOCO1
solubility (mole fraction)
Conditions	in dimethoxymethane	in ethanol	in isopropanol	in methanol
288.15 K	0.32	0.136	0.17	0.167
293.15 K	0.371	0.175	0.213	0.21
297.15 K	0.416	–	–	–
298.15 K	–	0.228	0.268	0.26
300.15 K	0.452	–	–	–
303.15 K	0.489	0.29	0.331	0.318
306.15 K	0.527	–	–	–
308.15 K	–	0.362	0.417	0.398
309.15 K	0.567	–	–	–
312.15 K	0.608	–	–	–
313.15 K	–	0.457	0.511	0.517
318.15 K	–	0.591	0.643	0.645
321.15 K	–	–	–	0.8
323.15 K	–	0.74	0.793	–
328.15 K	–	0.913	0.945	–
